In the supplement of paper PMC10627819:

Key:
B. subtilis 168 [1] = assay: fitness (endpoint OD595 vs no drug) (fraction); higher = more growth
Outline: (§1)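 Plates with 384 wells were inoculated at OD595 0.01 using 30 µl of TSB, LB Lennox or CY, or 55 µl for S. pneumoniae. Incubation was at 37 °C, with OD595 measured every 30 min for 14 h. Fitness is the stationary-phase transition optical density over the robust mean of no-drug control wells, after first-reading background subtraction; it is capped at 1.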

S. aureus DSM 20231 [2] = assay: as above
Outline: as §1

S. aureus Newman [3] = assay: as above
Outline: as §1

S. pneumoniae D39V [4] = assay: as above
Outline: as §1

B. subtilis 168 [5] = assay: Bliss interaction score (quartile over a dose matrix) (fitness difference); higher = more antagonism (negative = synergy)
Outline: (§2)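 Growth in each well was taken as OD595 at entry into stationary phase. Dividing by the plate's robust no-drug mean and capping at 1 gave fitness, and single-drug fitness was inferred from the combination data. The Bliss score, observed minus product-expected fitness, is summarised by quartiles over technical, biological and donor/recipient replicates.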

S. aureus DSM 20231 [6] = assay: as above
Outline: as §2

S. aureus Newman [7] = assay: as above
Outline: as §2

S. pneumoniae D39V [8] = assay: as above
Outline: as §2
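Throughout, for Bliss interaction score (quartile over a dose matrix): first quartile when negative (synergy) and third quartile when positive (antagonism).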

CCCCCCCCCC(=O)N[C@@H](Cc1c[nH]c2ccccc12)C(=O)N[C@H](CC(N)=O)C(=O)N[C@@H](CC(=O)O)C(=O)N[C@@H]1C(=O)NCC(=O)N[C@@H](CCCN)C(=O)N[C@@H](CC(=O)O)C(=O)N[C@H](C)C(=O)N[C@@H](CC(=O)O)C(=O)NCC(=O)N[C@H](CO)C(=O)N[C@@H]([C@H](C)CC(=O)O)C(=O)N[C@@H](CC(=O)c2ccccc2N)C(=O)O[C@@H]1C [Daptomycin] + C[C@@H]1O[C@@H]1P(=O)(O)O [Fosfomycin]
fitness
Details	first compound 0.125 µg/mL	first compound 0.25 µg/mL	first compound 0.5 µg/mL	first compound 1 µg/mL	first compound 2 µg/mL	first compound 4 µg/mL
B. subtilis 168 [1], partner 1.562 µg/mL	0.686	0.728	0.771	–	–	–
B. subtilis 168 [1], partner 3.124 µg/mL	0.642	0.645	0.625	–	–	–
B. subtilis 168 [1], partner 6.248 µg/mL	0.492	0.468	0.511	–	–	–
S. aureus DSM 20231 [2], partner 0.781 µg/mL	0.742	0.659	0.818	0.879	0.778	–
S. aureus DSM 20231 [2], partner 1.562 µg/mL	0.589	0.586	0.621	0.609	0.601	–
S. aureus DSM 20231 [2], partner 3.124 µg/mL	0.498	0.496	0.505	0.495	0.508	–
S. aureus Newman [3], partner 0.781 µg/mL	0.657	0.674	0.703	–	–	–
S. aureus Newman [3], partner 1.562 µg/mL	0.536	0.534	0.534	–	–	–
S. aureus Newman [3], partner 3.124 µg/mL	0.233	0.172	0.16	–	–	–
S. pneumoniae D39V [4], partner 1.25 µg/mL	–	–	–	0.93	0.919	–
S. pneumoniae D39V [4], partner 2.5 µg/mL	–	–	–	0.844	0.845	0.767
S. pneumoniae D39V [4], partner 5 µg/mL	–	–	–	0.624	0.64	0.597

B. subtilis 168 [1], first compound 1 µg/mL, one replicate
Details	fitness
partner 1.562 µg/mL	0.7
partner 3.124 µg/mL	0.501
partner 6.248 µg/mL	0.305

Details	Bliss interaction score
B. subtilis 168 [5]	0.063
S. aureus DSM 20231 [6]	-0.0509
S. aureus Newman [7]	0.0452
S. pneumoniae D39V [8]	0.0735

CCCCCCCCCC(=O)N[C@@H](Cc1c[nH]c2ccccc12)C(=O)N[C@H](CC(N)=O)C(=O)N[C@@H](CC(=O)O)C(=O)N[C@@H]1C(=O)NCC(=O)N[C@@H](CCCN)C(=O)N[C@@H](CC(=O)O)C(=O)N[C@H](C)C(=O)N[C@@H](CC(=O)O)C(=O)NCC(=O)N[C@H](CO)C(=O)N[C@@H]([C@H](C)CC(=O)O)C(=O)N[C@@H](CC(=O)c2ccccc2N)C(=O)O[C@@H]1C [Daptomycin] + C[n+]1ccc(-c2cc[n+](C)cc2)cc1 [Paraquat]
fitness
Details	first compound 0.125 µg/mL	first compound 0.25 µg/mL	first compound 0.5 µg/mL	first compound 1 µg/mL	first compound 2 µg/mL	first compound 4 µg/mL
B. subtilis 168 [1], partner 1.25 µg/mL	0.901	0.93	0.85	–	–	–
B. subtilis 168 [1], partner 2.5 µg/mL	0.9	0.901	0.902	–	–	–
B. subtilis 168 [1], partner 5 µg/mL	0.894	0.857	0.81	–	–	–
S. aureus DSM 20231 [2], partner 1.25 µg/mL	0.906	0.9	0.942	0.932	0.883	–
S. aureus DSM 20231 [2], partner 2.5 µg/mL	0.898	0.923	0.991	0.968	0.995	–
S. aureus DSM 20231 [2], partner 5 µg/mL	0.93	0.927	0.924	1	0.907	–
S. aureus Newman [3], partner 1.25 µg/mL	≥ 1	≥ 1	0.995	–	–	–
S. aureus Newman [3], partner 2.5 µg/mL	≥ 1	≥ 1	0.977	–	–	–
S. aureus Newman [3], partner 5 µg/mL	0.974	0.945	0.9	–	–	–
S. pneumoniae D39V [4], partner 1.5 µg/mL	–	–	–	0.996	0.987	0.936
S. pneumoniae D39V [4], partner 3 µg/mL	–	–	–	0.973	0.955	0.937
S. pneumoniae D39V [4], partner 6 µg/mL	–	–	–	0.974	0.922	0.872

B. subtilis 168 [1], first compound 1 µg/mL, one replicate
Details	fitness
partner 1.25 µg/mL	0.743
partner 2.5 µg/mL	0.722
partner 5 µg/mL	0.653

Details	Bliss interaction score
B. subtilis 168 [5]	0.0589
S. aureus DSM 20231 [6]	-0.0451
S. aureus Newman [7]	0.0526
S. pneumoniae D39V [8]	0.0711

CCCCCCCCCC(=O)N[C@@H](Cc1c[nH]c2ccccc12)C(=O)N[C@H](CC(N)=O)C(=O)N[C@@H](CC(=O)O)C(=O)N[C@@H]1C(=O)NCC(=O)N[C@@H](CCCN)C(=O)N[C@@H](CC(=O)O)C(=O)N[C@H](C)C(=O)N[C@@H](CC(=O)O)C(=O)NCC(=O)N[C@H](CO)C(=O)N[C@@H]([C@H](C)CC(=O)O)C(=O)N[C@@H](CC(=O)c2ccccc2N)C(=O)O[C@@H]1C [Daptomycin] + Cc1cc(NS(=O)(=O)c2ccc(N)cc2)no1 [Sulfamethoxazol]
one replicate
Details	fitness
B. subtilis 168 [1], first compound 0.125 µg/mL, partner 0.5 µg/mL	0.919
B. subtilis 168 [1], first compound 0.25 µg/mL, partner 0.5 µg/mL	0.908
B. subtilis 168 [1], first compound 0.5 µg/mL, partner 0.5 µg/mL	0.969
B. subtilis 168 [1], first compound 1 µg/mL, partner 1 µg/mL	0.719
B. subtilis 168 [1], first compound 1 µg/mL, partner 2 µg/mL	0.72
B. subtilis 168 [1], first compound 1 µg/mL, partner 4 µg/mL	0.645
S. aureus DSM 20231 [2], first compound 0.125 µg/mL, partner 1 µg/mL	0.926
S. aureus DSM 20231 [2], first compound 0.125 µg/mL, partner 2 µg/mL	≥ 1
S. aureus DSM 20231 [2], first compound 0.125 µg/mL, partner 4 µg/mL	≥ 1
S. aureus DSM 20231 [2], first compound 0.25 µg/mL, partner 1 µg/mL	0.951
S. aureus DSM 20231 [2], first compound 0.25 µg/mL, partner 2 µg/mL	≥ 1
S. aureus DSM 20231 [2], first compound 0.25 µg/mL, partner 4 µg/mL	0.974
S. aureus Newman [3], first compound 0.5 µg/mL, partner 8 µg/mL	0.954
S. aureus Newman [3], first compound 1 µg/mL, partner 2 µg/mL	≥ 1
S. aureus Newman [3], first compound 1 µg/mL, partner 4 µg/mL	0.986
S. aureus Newman [3], first compound 1 µg/mL, partner 8 µg/mL	0.973
S. aureus Newman [3], first compound 2 µg/mL, partner 2 µg/mL	0.994
S. aureus Newman [3], first compound 2 µg/mL, partner 4 µg/mL	≥ 1
S. aureus Newman [3], first compound 2 µg/mL, partner 8 µg/mL	0.983

fitness
Details	partner 1 µg/mL	partner 2 µg/mL	partner 4 µg/mL
B. subtilis 168 [1], first compound 0.125 µg/mL	0.893	0.821	0.938
B. subtilis 168 [1], first compound 0.25 µg/mL	0.895	0.885	0.856
B. subtilis 168 [1], first compound 0.5 µg/mL	0.928	0.814	–
S. aureus DSM 20231 [2], first compound 0.5 µg/mL	0.914	≥ 1	≥ 1
S. aureus DSM 20231 [2], first compound 1 µg/mL	0.918	0.988	0.976
S. aureus DSM 20231 [2], first compound 2 µg/mL	0.913	0.988	0.963
S. aureus Newman [3], first compound 0.125 µg/mL	0.967	0.99	≥ 1
S. aureus Newman [3], first compound 0.25 µg/mL	0.967	0.977	≥ 1
S. aureus Newman [3], first compound 0.5 µg/mL	0.992	0.971	≥ 1
S. pneumoniae D39V [4], first compound 1 µg/mL	0.932	0.95	0.964
S. pneumoniae D39V [4], first compound 2 µg/mL	0.924	0.901	0.935
S. pneumoniae D39V [4], first compound 4 µg/mL	0.916	0.938	0.938

Details	Bliss interaction score
B. subtilis 168 [5]	-0.0776
S. aureus DSM 20231 [6]	0.041
S. aureus Newman [7]	0.0337
S. pneumoniae D39V [8]	0.0745

CCCCCCCCCC(=O)N[C@@H](Cc1c[nH]c2ccccc12)C(=O)N[C@H](CC(N)=O)C(=O)N[C@@H](CC(=O)O)C(=O)N[C@@H]1C(=O)NCC(=O)N[C@@H](CCCN)C(=O)N[C@@H](CC(=O)O)C(=O)N[C@H](C)C(=O)N[C@@H](CC(=O)O)C(=O)NCC(=O)N[C@H](CO)C(=O)N[C@@H]([C@H](C)CC(=O)O)C(=O)N[C@@H](CC(=O)c2ccccc2N)C(=O)O[C@@H]1C [Daptomycin] + Cc1ncc([N+](=O)[O-])n1CCO [Metronidazole]
fitness
Details	partner 0.625 µg/mL	partner 1.073 µg/mL	partner 1.25 µg/mL	partner 2.145 µg/mL	partner 2.5 µg/mL	partner 4.29 µg/mL	partner 5 µg/mL
B. subtilis 168 [1], first compound 0.125 µg/mL	0.942	–	0.892	–	0.93	–	–
B. subtilis 168 [1], first compound 0.25 µg/mL	0.899	–	0.966	–	0.944	–	–
B. subtilis 168 [1], first compound 0.5 µg/mL	0.935	–	0.904	–	0.874	–	–
S. aureus DSM 20231 [2], first compound 0.125 µg/mL	0.924	–	≥ 1	–	0.983	–	–
S. aureus DSM 20231 [2], first compound 0.25 µg/mL	0.932	–	≥ 1	–	≥ 1	–	–
S. aureus DSM 20231 [2], first compound 0.5 µg/mL	≥ 1	–	≥ 1	–	≥ 1	–	–
S. aureus DSM 20231 [2], first compound 1 µg/mL	≥ 1	–	≥ 1	–	≥ 1	–	–
S. aureus DSM 20231 [2], first compound 2 µg/mL	≥ 1	–	≥ 1	–	≥ 1	–	–
S. aureus Newman [3], first compound 0.125 µg/mL	0.935	–	≥ 1	–	0.982	–	–
S. aureus Newman [3], first compound 0.25 µg/mL	0.951	–	≥ 1	–	0.994	–	–
S. aureus Newman [3], first compound 0.5 µg/mL	≥ 1	–	≥ 1	–	0.975	–	–
S. pneumoniae D39V [4], first compound 1 µg/mL	–	0.846	0.977	0.786	≥ 1	0.777	0.993
S. pneumoniae D39V [4], first compound 2 µg/mL	–	0.9	0.985	0.876	≥ 1	0.87	≥ 1
S. pneumoniae D39V [4], first compound 4 µg/mL	–	0.949	0.93	0.888	0.97	0.928	0.976

fitness, one replicate
Details	partner 0.625 µg/mL	partner 0.781 µg/mL	partner 1.25 µg/mL	partner 1.562 µg/mL	partner 2.5 µg/mL	partner 3.124 µg/mL
B. subtilis 168 [1], first compound 1 µg/mL	0.736	–	0.806	–	0.754	–
S. aureus Newman [3], first compound 0.125 µg/mL	–	≥ 1	–	≥ 1	–	≥ 1
S. aureus Newman [3], first compound 0.25 µg/mL	–	≥ 1	–	≥ 1	–	≥ 1
S. aureus Newman [3], first compound 0.5 µg/mL	–	≥ 1	–	≥ 1	–	≥ 1

Details	Bliss interaction score
B. subtilis 168 [5]	-0.0566
S. aureus DSM 20231 [6]	0.0276
S. aureus Newman [7]	0.0422
S. pneumoniae D39V [8]	0.0723
